Laboratory results reported in PubChem BioAssay (NCI).
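Protocol summary: plate cells (96-well), add compound at 5 concentrations, incubate 48 h, interpolate endpoints linearly. GI50 is the concentration that inhibits growth by half. TGI is the concentration that stops growth completely.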

Tests used:
Test in all cases: growth of human tumour cells (NCI), 48 h
[1] = tested on: NCI-H522 lung
[2] = tested on: SK-MEL-28 melanoma
[3] = tested on: SF-539 CNS
[4] = tested on: OVCAR-5 ovarian
[5] = tested on: HL-60(TB) leukemia
[6] = tested on: SF-295 CNS
[7] = tested on: MOLT-4 leukemia
[8] = tested on: M14 melanoma
[9] = tested on: OVCAR-3 ovarian
[10] = tested on: T-47D breast
[11] = tested on: 786-0 renal
[12] = tested on: PC-3 prostate

Structure (SMILES)	TGI [1] [µM]	TGI [2] [µM]	TGI [3] [µM]	TGI [4] [µM]	TGI [5] [µM]	TGI [6] [µM]	TGI [7] [µM]	TGI [8] [µM]	TGI [9] [µM]	TGI [10] [µM]	TGI [11] [µM]	TGI [12] [µM]	GI50 [1] [µM]	GI50 [2] [µM]	GI50 [3] [µM]	GI50 [10] [µM]	GI50 [4] [µM]	GI50 [6] [µM]	GI50 [12] [µM]	GI50 [8] [µM]
Cc1[nH]n(-c2ccccc2)c(=S)c1C(=O)c1ccccc1	> 100	> 100	> 100	> 100	> 100	> 100	79.4	93.7	–	–	–	–	–	–	–	–	–	–	–	–
COc1cccc(/C=N/n2c(-c3ccccc3)n[nH]c2=O)c1	–	> 100	> 100	> 100	–	54.4	> 100	> 100	> 100	> 100	> 100	> 100	–	–	–	–	–	–	–	–
Cc1c2n(c3ccccc13)CC1C2N(C)OC1(C)C (stereo unspecified)	> 100	> 100	> 100	> 100	–	> 100	> 100	> 100	> 100	–	> 100	–	–	–	–	–	–	–	–	–
CCC12C=CCN3CC[C@]4(C(=C(C(=O)OC)[C@@H]1Nc1ccn(C5OC(COC(C)=O)C(OC(C)=O)C5OC(C)=O)c(=O)n1)Nc1ccccc14)C32 (stereo partly specified)	7.17	8.43	9.17	3.6	12.6	10.2	23.5	8.51	7.8	–	8.9	–	–	–	–	–	–	–	–	–
O=C(c1nsc(Cl)c1Cl)N1CCCCC1	–	> 100	> 100	> 100	> 100	> 100	> 100	> 100	> 100	–	> 100	> 100	–	–	–	–	–	–	–	–
CC1=NN(C(=O)c2ccc(Cl)cc2)C(=O)/C1=C/c1cccc(O)c1	> 100	> 100	> 100	> 100	> 100	> 100	> 100	> 100	> 100	–	> 100	–	–	–	–	–	–	–	–	–
Clc1ccc2c(NCCNc3nc(-c4ccccc4)cc(-c4ccccc4)n3)ccnc2c1	3.76	3.23	3.35	3.17	–	3.39	–	3.16	–	3.47	–	3.44	1.87	1.76	1.79	1.5	1.68	1.76	1.88	1.71
Cc1sc(N=Nc2c(O)[nH]c3ccccc23)nc1-c1ccccc1	–	79.8	37.5	49.3	25	29.1	65.4	65.2	27.2	33.1	36.6	–	–	–	–	–	–	–	–	–
COC(CNC(=O)C(C)NC(=O)C(C)NC(=O)c1ccccc1)OC (stereo unspecified)	> 100	–	> 100	> 100	–	> 100	> 100	> 100	–	> 100	> 100	> 100	–	–	–	–	–	–	–	–
CCN(CC)CC(C)(C)C(=O)/C=C/c1ccc(C)cc1	8.93	27.8	26.2	27.6	–	26.1	39.9	25	21.7	–	23.2	–	–	–	–	–	–	–	–	–
CC(=O)CN=C(C)NNc1ccc([N+](=O)[O-])cc1[N+](=O)[O-]	> 100	> 100	> 100	> 100	–	> 100	> 100	> 100	> 100	> 100	> 100	> 100	–	–	–	–	–	–	–	–
Cc1ccc(N2C(=O)/C(=c3\s/c(=C(/N)O)c(=N)n3-c3ccccc3)SC2=S)cc1	> 100	> 100	> 100	> 100	> 100	> 100	> 100	–	> 100	–	–	–	–	–	–	–	–	–	–	–
Cc1cc2c3c(ccc4ncc(c43)CN2c2ccc(NS(C)(=O)=O)cc2)[nH]1	> 100	> 100	–	> 100	> 100	> 100	> 100	> 100	81.5	–	23.5	> 100	–	–	–	–	–	–	–	–
CCC(C)(C)NC1=C(NC(C)=O)C(=O)c2ccccc2C1=O	28.7	> 75	> 75	–	43	> 75	31.6	> 75	> 75	–	> 75	–	–	–	–	–	–	–	–	–
c1ccc2cc3n[se]nc3cc2c1	> 100	> 100	> 100	> 100	> 100	> 100	> 100	> 100	–	–	–	–	–	–	–	–	–	–	–	–
Cn1ncc2c(NCCc3ccccc3)nc(Cl)nc21	> 100	76.4	–	36.4	–	67.7	39.9	39.7	> 100	79.3	64.2	71.8	–	–	–	–	–	–	–	–

Structure (SMILES)	TGI [1] [µM]	TGI [2] [µM]	TGI [3] [µM]	TGI [4] [µM]	TGI [5] [µM]	TGI [6] [µM]	TGI [7] [µM]	TGI [8] [µM]	TGI [9] [µM]	TGI [10] [µM]	TGI [11] [µM]	TGI [12] [µM]	GI50 [1] [µM]	GI50 [2] [µM]	GI50 [3] [µM]	GI50 [10] [µM]	GI50 [4] [µM]	GI50 [6] [µM]	GI50 [12] [µM]	GI50 [8] [µM]
CC(C)NC(C)Cc1ccccc1 (stereo unspecified)	> 100	> 100	> 100	> 100	> 100	> 100	–	> 100	> 100	–	> 100	–	–	–	–	–	–	–	–	–
O=C1c2c(Br)sc(Br)c2[C@H]2NC(=S)O[C@@H]12	3.74	29.6	33.6	35.2	–	45.5	5.31	30.5	20.4	69.3	28.5	27.7	–	–	–	–	–	–	–	–
CC[n+]1[b-](C(C)(C)C)n(/N=C(\C)C(C)(C)C)[b-](C(C)(C)C)[n+]1CC	> 100	> 100	> 100	> 100	–	> 100	> 100	> 100	> 100	> 100	> 100	> 100	–	–	–	–	–	–	–	–
CC(C)(C)C1CCC2c3c([nH]c4ccccc34)C3C(=O)N(c4ccc(Br)cc4)C(=O)C3C2C1 (stereo unspecified)	–	> 100	38.7	56.5	29.5	63.1	26.2	> 100	–	–	37.3	–	–	–	–	–	–	–	–	–
Nc1nc(=O)n(C2OC(CO)C(O)C2O)cc1F (stereo unspecified)	> 100	> 100	> 100	> 81.3	–	> 100	0.268	–	> 100	–	–	–	–	–	–	–	–	–	–	–
CCCCc1ccc(Nc2nc(Cl)c3[nH]cnc3n2)cc1	65.3	–	32.7	> 100	> 100	34.6	> 100	41.5	28.9	37.2	29.1	–	–	–	–	–	–	–	–	–
C[n+]1c2ccccc2c(NC(CCC(N)=O)C(=O)O)c2ccccc21 (stereo unspecified)	> 100	–	> 100	> 100	> 100	> 100	> 100	> 100	> 100	–	> 100	–	–	–	–	–	–	–	–	–
CC(C)(C)OC(=O)C1/C(=C/CO)CN1C(=O)OC(C)(C)C (stereo unspecified)	–	> 100	> 100	> 100	> 100	> 100	> 100	> 100	> 100	–	> 100	> 100	–	–	–	–	–	–	–	–
COc1cc2cc(C(=O)N3CC(COS(C)(=O)=O)c4c3cc([N+](=O)[O-])c3ccccc43)[nH]c2c(OC)c1OC (stereo unspecified)	> 31.6	> 31.6	> 31.6	> 31.6	–	> 31.6	–	> 31.6	> 31.6	> 31.6	–	> 31.6	–	–	–	–	–	–	–	–
CCOc1ccc(N=Cc2cc(OC)c(OC)c(OC)c2)cc1	> 100	> 100	> 100	> 100	> 100	> 100	> 100	> 100	> 100	–	> 100	–	–	–	–	–	–	–	–	–
C(/COc1cccnc1)=N\NC1=NCCN1	> 100	> 100	> 100	> 100	> 100	> 100	> 100	> 100	> 100	–	> 100	–	–	–	–	–	–	–	–	–
CC(=O)OC1CC(OC2C(O)CC(OC3C(O)CC(OC4CCC5(C)C(CCC6C5CC(O)C5(C)C(C7=CC(=O)OC7)CCC65O)C4)OC3C)OC2C)OC(C)C1O (stereo unspecified) (tested in a mixture with another compound)	0.0275	–	0.113	0.12	–	0.133	–	0.231	0.0507	0.41	0.13	0.123	–	–	–	–	–	–	–	–
c1ccc(C2CC(N3CCOCC3)=Nc3ccccc3N2)cc1 (stereo unspecified)	> 100	> 100	> 100	> 100	> 100	> 100	> 100	> 100	> 100	–	> 100	> 100	–	–	–	–	–	–	–	–
Cc1ccc2c(c1)NC(=O)C(N=[N+]=[N-])(c1ccccc1)C2=O (stereo unspecified)	45.6	> 100	81.5	> 100	37.5	78.1	71.5	33	37.7	–	> 100	–	–	–	–	–	–	–	–	–
Nc1ncnc2c1ncn2CC(OCP(=O)(O)O)Oc1ccccc1 (stereo unspecified)	–	> 100	> 100	> 100	–	> 100	–	> 100	> 100	> 100	> 100	> 100	–	–	–	–	–	–	–	–
Cc1c(-c2ccccc2)n(C)c2cn[nH]c(=O)c12	> 100	> 100	> 100	> 100	> 100	65.1	> 100	> 100	47.7	–	62.5	51.3	–	–	–	–	–	–	–	–
